Test results: ChEMBL document CHEMBL1201862, “PubChem BioAssay data set” (2004)
Calls of active or inactive are those of the source.

Tests used:
Cytochrome P450 2D6 = Cytochrome P450 2D6 (Homo sapiens, UniProt P10635);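 note: CYP2D6 member of a cytochrome P450 panel assay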
Cytochrome P450 2C9 [1] = biological target: T1, Cytochrome P450 2C9 (Homo sapiens, UniProt P11712)
Cytochrome P450 2C9 [2] = biological target: T1, Cytochrome P450 2C9; remark: listed apart in the source
Cytochrome P450 3A4 = Cytochrome P450 3A4 (Homo sapiens, UniProt P08684);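 note: CYP3A4 tested as one member of a cytochrome P450 panel screen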
[3] = intracellular Trypanosoma cruzi inhibitors in host cells – cell-based, plate reader, cherry-pick samples, set 3, dose response (AID 651818); assay type: functional;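 note: compounds incubated with infected cells for about four days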
[4] = growth suppression of PTEN-null colon cells, dose response, cell-based, HCT116 PTEN knockout (AID 1047); assay type: functional;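 note: HCT116 colon tumor cells with PTEN knocked out; cells exposed to compound for 60 hours before readout; potency for loss of cell viability measured by luminescence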
[5] = growth suppression of beta-catenin-knockout colon cells, dose response, cell-based, HCT116, human colon tumor (AID 1045); assay type: functional;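 note: HCT116 colon tumor cells with beta catenin knocked out; cells exposed to compound for 60 hours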
P388 = experiment: cells; assay type: functional; conditions: Mus musculus;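 note: compound exposure lasted 48 hours before growth was measured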
[6] = Luminescence Cell-Based Dose Confirmation HTS to Identify Activators of 5'UTR Stem-Loop Driven Alpha-Synuclein mRNA Translation in H4 Neuroglioblastoma Cells. [Related pubchem assays: 1829 (Project Summary), 1814 (Primary HTS)]; assay type: functional
[7] = Luminescence Cell-Based Dose Response HTS to Identify Activators of Luciferase Translation or Activity in H4 […] Cells. [Related pubchem assays: 1829 (Project Summary), 1814 (Primary HTS)]; assay type: functional
[8] = tested on: Streptococcus sp. 'group A'; experiment: growth inhibition of control SK(-) GAS strain, dose response, counter-screen for streptokinase expression inhibitor project, luminescence, kanamycin, BacTiterGlo, confirmation (AID 1900); assay type: functional, organism-based
H4 = experiment: Luminescence Cell-Based Dose Response HTS to Identify Activators of 5'UTR Stem-Loop Driven Prion Protein mRNA Translation in H4 Neuroglioblastoma Cells. [Related pubchem assays: 1829 (Project Summary), 1814 (Primary HTS)]; assay type: functional; conditions: Homo sapiens
Streptococcus = experiment: Group A Streptococcus viability loss, dose response, counter-screen for streptokinase expression inhibitor project, luminescence, BacTiterGlo (AID 1915); assay type: functional, organism-based;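 note: potency for reduction of bacterial viability or growth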
Cytochrome P450 2C19 = Cytochrome P450 2C19 (Homo sapiens, UniProt P33261); experiment: Cytochrome panel assay with activity outcomes. Panel member name: p450-cyp2c19 Compounds with AC50 equal or less than 10 uM are considered active; assay type: functional; conditions: read-out: AC50
Cytochrome P450 1A2 = biological target: T2, Cytochrome P450 1A2 (Homo sapiens, UniProt P05177);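 note: PubChem cytochrome P450 panel assay, CYP1A2 panel member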
T2 sequence (P05177 whole entry): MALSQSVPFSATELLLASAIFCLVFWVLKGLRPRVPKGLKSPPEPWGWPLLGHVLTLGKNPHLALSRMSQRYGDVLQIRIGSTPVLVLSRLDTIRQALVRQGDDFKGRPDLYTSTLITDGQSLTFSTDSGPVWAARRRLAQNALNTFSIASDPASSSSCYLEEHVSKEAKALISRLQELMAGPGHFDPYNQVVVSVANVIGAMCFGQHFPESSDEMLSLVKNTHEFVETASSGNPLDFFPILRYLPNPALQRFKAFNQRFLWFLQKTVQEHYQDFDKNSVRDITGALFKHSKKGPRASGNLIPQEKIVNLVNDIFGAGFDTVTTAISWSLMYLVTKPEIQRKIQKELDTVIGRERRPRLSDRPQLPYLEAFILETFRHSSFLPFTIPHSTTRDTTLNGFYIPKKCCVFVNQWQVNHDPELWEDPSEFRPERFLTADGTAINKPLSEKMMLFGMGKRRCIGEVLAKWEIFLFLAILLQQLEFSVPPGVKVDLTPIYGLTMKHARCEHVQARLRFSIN

[9] = biological target: T3, Replicative DNA helicase DnaB (Mycobacterium tuberculosis, UniProt P9WMR3); experiment: DnaB intein splicing inhibitors, dose response, biochemical, cell-free fluorescence (AID 449749); assay type: functional
T3 sequence (P9WMR3 whole entry): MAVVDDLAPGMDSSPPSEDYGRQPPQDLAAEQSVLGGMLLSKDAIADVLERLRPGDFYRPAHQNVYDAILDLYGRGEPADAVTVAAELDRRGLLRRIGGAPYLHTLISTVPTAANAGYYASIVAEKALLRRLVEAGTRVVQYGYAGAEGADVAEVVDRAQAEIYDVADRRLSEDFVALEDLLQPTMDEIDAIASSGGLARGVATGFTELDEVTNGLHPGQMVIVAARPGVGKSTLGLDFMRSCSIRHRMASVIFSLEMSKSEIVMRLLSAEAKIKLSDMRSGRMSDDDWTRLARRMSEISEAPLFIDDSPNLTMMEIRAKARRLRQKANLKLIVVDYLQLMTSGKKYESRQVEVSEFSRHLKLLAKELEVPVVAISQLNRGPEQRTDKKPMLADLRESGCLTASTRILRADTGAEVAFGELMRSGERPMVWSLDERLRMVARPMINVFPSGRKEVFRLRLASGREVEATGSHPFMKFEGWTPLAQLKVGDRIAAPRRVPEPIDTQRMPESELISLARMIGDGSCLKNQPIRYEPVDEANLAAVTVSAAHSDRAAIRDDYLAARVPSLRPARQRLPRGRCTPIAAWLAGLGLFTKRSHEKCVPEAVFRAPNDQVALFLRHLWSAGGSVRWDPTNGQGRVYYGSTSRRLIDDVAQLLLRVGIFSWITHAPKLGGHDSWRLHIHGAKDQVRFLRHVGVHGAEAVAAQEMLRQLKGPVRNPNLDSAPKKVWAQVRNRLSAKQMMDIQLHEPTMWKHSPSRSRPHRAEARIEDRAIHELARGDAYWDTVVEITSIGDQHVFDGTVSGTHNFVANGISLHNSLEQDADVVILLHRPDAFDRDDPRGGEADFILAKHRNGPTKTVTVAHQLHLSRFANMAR

Protein RecA = biological target: T4, Protein RecA (Mycobacterium tuberculosis, UniProt P9WHJ3); experiment: Fluorescence Cell-Free Homogeneous Dose Retest to Identify Inhibitors of RecA-Intein Splicing Activity. [Related pubchem assays (depositor defined):AID2097, AID2223, AID489010, AID492950]; assay type: functional
T4 sequence (P9WHJ3 whole entry): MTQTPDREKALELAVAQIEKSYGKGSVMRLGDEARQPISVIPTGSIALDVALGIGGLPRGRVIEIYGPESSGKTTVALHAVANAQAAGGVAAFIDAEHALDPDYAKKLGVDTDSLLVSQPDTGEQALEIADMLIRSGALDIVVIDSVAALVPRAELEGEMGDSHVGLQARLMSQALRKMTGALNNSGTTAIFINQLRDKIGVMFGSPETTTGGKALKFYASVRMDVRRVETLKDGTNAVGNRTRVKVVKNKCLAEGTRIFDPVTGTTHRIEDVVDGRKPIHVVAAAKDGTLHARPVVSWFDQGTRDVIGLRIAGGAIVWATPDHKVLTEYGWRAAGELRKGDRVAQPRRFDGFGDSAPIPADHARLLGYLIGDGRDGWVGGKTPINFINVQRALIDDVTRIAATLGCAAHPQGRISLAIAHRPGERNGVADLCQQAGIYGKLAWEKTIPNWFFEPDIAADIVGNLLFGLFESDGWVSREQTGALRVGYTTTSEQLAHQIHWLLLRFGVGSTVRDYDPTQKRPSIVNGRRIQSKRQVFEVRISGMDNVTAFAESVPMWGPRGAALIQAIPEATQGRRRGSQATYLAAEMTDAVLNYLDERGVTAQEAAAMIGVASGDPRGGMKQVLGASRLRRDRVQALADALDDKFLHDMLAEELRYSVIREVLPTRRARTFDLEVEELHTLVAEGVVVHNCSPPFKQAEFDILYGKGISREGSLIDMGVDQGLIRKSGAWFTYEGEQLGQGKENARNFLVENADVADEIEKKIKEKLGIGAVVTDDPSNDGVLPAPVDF

Protein skinhead-1 = biological target: T5, Protein skinhead-1 (Caenorhabditis elegans, UniProt P34707); assay type: functional
T5 sequence (P34707 whole entry): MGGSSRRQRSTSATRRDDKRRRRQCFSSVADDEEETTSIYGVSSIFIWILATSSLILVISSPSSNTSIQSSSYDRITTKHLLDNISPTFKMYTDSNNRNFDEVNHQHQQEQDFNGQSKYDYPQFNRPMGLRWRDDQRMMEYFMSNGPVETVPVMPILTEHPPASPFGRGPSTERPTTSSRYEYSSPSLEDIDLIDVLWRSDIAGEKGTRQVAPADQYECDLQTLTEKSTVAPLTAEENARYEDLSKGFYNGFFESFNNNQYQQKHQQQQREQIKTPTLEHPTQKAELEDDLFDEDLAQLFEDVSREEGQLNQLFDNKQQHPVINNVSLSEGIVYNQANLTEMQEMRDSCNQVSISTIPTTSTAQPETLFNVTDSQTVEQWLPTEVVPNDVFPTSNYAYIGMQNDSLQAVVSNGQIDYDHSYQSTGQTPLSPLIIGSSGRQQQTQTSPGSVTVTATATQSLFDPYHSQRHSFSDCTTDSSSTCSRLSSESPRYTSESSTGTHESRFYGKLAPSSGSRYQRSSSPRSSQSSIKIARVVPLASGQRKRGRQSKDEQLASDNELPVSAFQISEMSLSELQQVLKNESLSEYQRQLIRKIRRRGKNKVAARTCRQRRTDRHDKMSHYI

Cytochrome P450 2D6, sequence (P10635 whole entry): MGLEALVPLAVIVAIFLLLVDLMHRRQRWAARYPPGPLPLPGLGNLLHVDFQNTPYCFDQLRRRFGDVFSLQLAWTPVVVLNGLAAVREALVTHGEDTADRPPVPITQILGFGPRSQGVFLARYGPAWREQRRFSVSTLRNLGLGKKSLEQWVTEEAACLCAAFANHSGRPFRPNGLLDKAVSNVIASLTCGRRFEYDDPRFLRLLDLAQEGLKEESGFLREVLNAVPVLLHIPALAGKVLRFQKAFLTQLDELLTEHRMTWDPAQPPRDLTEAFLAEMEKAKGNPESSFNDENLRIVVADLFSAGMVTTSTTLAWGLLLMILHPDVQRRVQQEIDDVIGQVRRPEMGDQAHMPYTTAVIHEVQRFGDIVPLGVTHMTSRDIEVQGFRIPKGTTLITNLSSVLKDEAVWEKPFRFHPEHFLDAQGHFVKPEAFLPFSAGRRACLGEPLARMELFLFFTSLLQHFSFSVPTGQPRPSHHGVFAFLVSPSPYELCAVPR
T1 sequence (P11712 whole entry): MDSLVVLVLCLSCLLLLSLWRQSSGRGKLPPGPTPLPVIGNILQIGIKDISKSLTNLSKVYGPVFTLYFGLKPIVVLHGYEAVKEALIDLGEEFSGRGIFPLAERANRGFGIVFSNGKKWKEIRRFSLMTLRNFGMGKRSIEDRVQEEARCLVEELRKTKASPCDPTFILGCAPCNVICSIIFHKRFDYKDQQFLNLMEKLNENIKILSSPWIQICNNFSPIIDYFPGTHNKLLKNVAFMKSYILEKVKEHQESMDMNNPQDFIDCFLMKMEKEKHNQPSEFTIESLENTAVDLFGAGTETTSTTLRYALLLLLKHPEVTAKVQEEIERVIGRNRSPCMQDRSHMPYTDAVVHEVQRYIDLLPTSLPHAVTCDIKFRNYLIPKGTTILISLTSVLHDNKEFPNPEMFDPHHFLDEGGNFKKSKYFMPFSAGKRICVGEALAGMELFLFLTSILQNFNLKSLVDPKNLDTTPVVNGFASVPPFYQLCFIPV
Cytochrome P450 3A4, sequence (P08684 whole entry): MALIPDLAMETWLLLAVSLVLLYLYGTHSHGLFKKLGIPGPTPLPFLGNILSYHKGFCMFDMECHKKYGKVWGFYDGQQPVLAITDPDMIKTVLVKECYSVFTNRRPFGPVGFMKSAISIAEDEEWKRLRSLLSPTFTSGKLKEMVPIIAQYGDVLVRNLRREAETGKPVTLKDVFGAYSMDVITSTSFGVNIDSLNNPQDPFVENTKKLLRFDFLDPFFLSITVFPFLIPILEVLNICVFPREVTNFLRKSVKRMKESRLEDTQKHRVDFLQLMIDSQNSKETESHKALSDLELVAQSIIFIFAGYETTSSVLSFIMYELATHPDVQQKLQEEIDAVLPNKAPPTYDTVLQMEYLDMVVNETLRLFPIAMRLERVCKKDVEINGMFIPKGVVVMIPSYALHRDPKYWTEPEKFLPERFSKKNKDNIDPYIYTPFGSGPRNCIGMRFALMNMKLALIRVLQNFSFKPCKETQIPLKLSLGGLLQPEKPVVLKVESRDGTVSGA
Cytochrome P450 2C19, sequence (P33261 whole entry): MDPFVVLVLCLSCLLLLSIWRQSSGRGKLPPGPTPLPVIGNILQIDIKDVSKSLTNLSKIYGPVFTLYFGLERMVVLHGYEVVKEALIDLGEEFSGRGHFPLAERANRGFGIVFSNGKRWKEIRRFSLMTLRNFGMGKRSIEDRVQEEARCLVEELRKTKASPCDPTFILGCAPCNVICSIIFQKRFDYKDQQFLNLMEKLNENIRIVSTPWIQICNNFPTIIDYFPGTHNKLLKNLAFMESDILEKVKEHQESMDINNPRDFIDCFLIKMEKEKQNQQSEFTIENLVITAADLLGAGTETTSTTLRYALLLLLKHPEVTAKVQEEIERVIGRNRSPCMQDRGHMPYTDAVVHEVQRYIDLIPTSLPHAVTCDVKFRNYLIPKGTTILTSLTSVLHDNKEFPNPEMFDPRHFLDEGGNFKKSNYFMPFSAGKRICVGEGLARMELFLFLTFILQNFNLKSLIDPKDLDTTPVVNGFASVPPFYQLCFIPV

CCn1c(COc2ccc(OC)cc2)nc2ccccc21
AC50 (Cytochrome P450 2D6): 17.8 µM (inconclusive)
AC50 (Cytochrome P450 2C9 [1]): inconclusive

O=c1c(-c2cccs2)nc2cncnc2n1Cc1ccc(F)cc1
AC50 (Cytochrome P450 2D6): 0.631 µM (inconclusive)
AC50 (Cytochrome P450 2C9 [2]): 1 µM (inconclusive)

CCOC(=O)CSC1=C(C#N)C(c2sccc2C)C(C(C)=O)=C(C)N1 (stereo not given)
AC50 (Cytochrome P450 2D6): 35.5 µM (inconclusive)

CN(C)C(=O)c1ccc(-c2nc(Nc3ccc(F)cc3)c3ccccc3n2)cc1
AC50 (Cytochrome P450 2D6): 25.1 µM (inconclusive)
AC50 (Cytochrome P450 3A4): 20 µM (inconclusive)

Cc1ccc(S(=O)(=O)Nc2cccc3c2O[C@H](CN(C)C(=O)Nc2ccc4c(c2)OCO4)[C@H](C)CN([C@H](C)CO)C3=O)cc1
AC50 [3]: 20 µM (inactive)

COc1cc2cc(/C=C/C(=O)c3ccco3)c(Cl)nc2cc1OC
EC50 [4]: 11.6 µM (active)
EC50 [5]: 10.1 µM (active)

CCCCN1C(=O)C(O)(CC(=O)c2ccco2)c2cc(Br)ccc21 (stereo not given)
EC50 [4]: 7.11 µM (active)
EC50 [5]: 5.01 µM (active)

C[C@H](CO)N1C[C@H](C)[C@@H](CN(C)S(=O)(=O)c2cn(C)cn2)Oc2c(cccc2N(C)C)C1=O
AC50 [3]: 15.8 µM (active)

C[C@H]1CN([C@@H](C)CO)C(=O)c2cccc(NC(=O)Nc3ccc4c(c3)OCO4)c2O[C@@H]1CN(C)Cc1ccc(C(=O)Nc2ccccc2N)cc1
AC50 [3]: 2.18 µM (active)

C[C@H]1CN([C@@H](C)CO)C(=O)Cc2cc(NC(=O)NC3CCCCC3)ccc2O[C@H]1CN(C)Cc1ccc(C(=O)Nc2ccccc2N)cc1
AC50 [3]: 2.97 µM (active)

COc1ccc2c3c(c4cc(OC)c(OC)cc4c2c1)C[C@H]1CCCCN1C3 [CRYPTOPLEURINE]
GI50 (P388): 0.005 µM (active)

O=C(N/N=C/c1c[nH]c2ccccc12)c1cc(-c2ccc(-c3ccccc3)cc2)[nH]n1
EC50 [6]: 0.219 µM (active)
EC50 [7]: 0.166 µM (active)
EC50 [8]: 3.46 µM (active)
EC50 (H4): > 120 µM (not active)
EC50 [4]: 5.81 µM (active)
EC50 [5]: 8.8 µM (active)
EC50 (Streptococcus): 1.56 µM (active)
AC50 (Cytochrome P450 2C19): 6.31 µM (inconclusive)
AC50 (Cytochrome P450 1A2): 3.16 µM (inconclusive)
AC50 (Cytochrome P450 2C9 [1]): inconclusive

CCOc1cc(/C=C2/C(=N)N3OC(C)=CC3=NC2=O)ccc1O
AC50 [9]: 95.1 µM (active)
EC50 (Protein RecA): 26.9 µM (active)

CCOC(=O)CC1=NN(c2ccccc2)C(=O)C1
AC50 [9]: 13.1 µM (active)
EC50 (Protein RecA): 10.1 µM (active)

O=C(c1ccc([N+](=O)[O-])cc1)[C@@H](Br)[C@@H](Br)c1ccnc2ccccc12
AC50 (Cytochrome P450 2D6): 3.98 µM (inconclusive)

C[N+](C)(C)C1=NNC2=Nc3ccccc3SC2=C1
AC50 (Cytochrome P450 2D6): 3.98 µM (inconclusive)

COc1cccc(/C=N/NC(=O)CNC(=O)C2COc3ccccc3O2)c1O (stereo not given)
EC50 [4]: 13.1 µM (active)
EC50 [5]: 10.9 µM (active)

CCOC(=O)c1cc2cc3ccccc3cc2[nH]1
EC50 [6]: 0.164 µM (active)
EC50 [7]: 0.191 µM (active)
EC50 (H4): > 120 µM (not active)
EC50 (Protein RecA): > 380 µM (inactive)
IC50 (Protein skinhead-1): > 100 µM (inactive)

COC(=O)[C@@]1(Cc2ccc(F)cc2)[C@H]2c3cc(C(=O)N(C)C)n(Cc4ccc(C)c(F)c4F)c3C[C@H]2CN1C(=O)c1ccccc1
AC50 (Cytochrome P450 2D6): 20 µM (inconclusive)

CCOC(=O)/C(=C/c1ccc(N2CCC(c3ccccc3)=N2)cc1)C(C)=O
EC50 [4]: 0.014 µM (active)
EC50 [5]: 26.7 µM (active)

COc1cc2c(cc1OC)-c1cc3ccc(OC)c(OC)c3c[n+]1CC2 [PALMITINE]
AC50 (Cytochrome P450 2D6): 12.6 µM (inconclusive)

COc1cc(C2NC(=O)C(C#N)=C(Nc3cccc(C)c3)S2)ccc1O (stereo not given)
AC50 [9]: 42 µM (active)
EC50 (Protein RecA): 20 µM (active)

CCOC(=O)/C=c1\s/c(=C\c2ccc(C(F)(F)F)cc2)c(=O)n1CC(=O)NCc1ccco1
EC50 [4]: 35.9 µM (active)
EC50 [5]: 45.9 µM (active)

COc1cc(C2(c3ccc(O)c(OC)c3)C(=O)Nc3c(Br)cc(Br)cc32)ccc1O
AC50 [9]: 3.13 µM (active)
EC50 (Protein RecA): 4.77 µM (active)

O=C(Cn1cc(C(=O)c2ccco2)c2ccccc21)NCc1ccco1
AC50 (Cytochrome P450 2D6): 22.4 µM (inconclusive)

COCCNc1ncnc2ccc(-c3ccccc3OC)cc12
AC50 (Cytochrome P450 2D6): 39.8 µM (inconclusive)

COC(=O)c1cc([N+](=O)[O-])c(-n2ccnc2)c([N+](=O)[O-])c1
AC50 [9]: 6.54 µM (active)
EC50 (Protein RecA): 4.53 µM (active)

CC(C)c1n[nH]c2c1C(c1cccs1)C(C#N)=C(N)O2 (stereo not given)
AC50 [9]: 10.8 µM (active)
EC50 (Protein RecA): 4.29 µM (active)
